Measurements taken from ChEMBL document CHEMBL3044960, “Evaluation of fungicide applications to sweet orange at different flowering stages for control of postbloom fruit drop caused by Colletotrichum acutatum” (2008).
Calls of active or inactive are those of the source. No cut-off for these calls is given here.

How the values were obtained:
Colletotrichum acutatum [1] = assay: Fungicidal activity against Colletotrichum acutatum infested Citrus sinensis assessed as reduction in number of symptomatic flowers at 0.056 g/l applied through airblast sprayer during green bud until open flower stages measured after 7 days; type: functional, organism-based
Colletotrichum acutatum [2] = assay: Fungicidal activity against Colletotrichum acutatum infested Citrus sinensis assessed as increase in fruit set at 0.056 g/l applied through airblast sprayer during open flower stage measured after 70 days; type: functional, organism-based
Colletotrichum acutatum [3] = assay: Fungicidal activity against Colletotrichum acutatum infested Citrus sinensis assessed as total fruit weight per plant at 0.056 g/l applied through airblast sprayer during green bud and white bud flower stages measured after 70 days (Rvb =65.90 kg); type: functional
Colletotrichum acutatum [4] = assay: Fungicidal activity against Colletotrichum acutatum infested Citrus sinensis assessed as total fruit weight per plant at 0.056 g/l applied through airblast sprayer during white bud and hollow ball flower stages measured after 70 days (Rvb =49.88 kg)s; type: functional
Colletotrichum acutatum [5] = assay: Fungicidal activity against Colletotrichum acutatum infested Citrus sinensis assessed as total fruit weight per plant at 0.056 g/l applied through airblast sprayer during green bud until open flower stages measured after 70 days (Rvb =65.90 kg); type: functional
Colletotrichum acutatum [6] = assay: Fungicidal activity against Colletotrichum acutatum infested Citrus sinensis assessed as increase in fruit set at 0.056 g/l applied through airblast sprayer during green bud, white bud and hollow ball flower stages measured after 70 days; type: functional, organism-based
Colletotrichum acutatum [7] = assay: Fungicidal activity against Colletotrichum acutatum infested Citrus sinensis assessed as reduction in symptomatic flowers at 0.056 g/l applied through airblast sprayer during hollow ball flower stage measured after 7 days; type: functional, organism-based
Colletotrichum acutatum [8] = assay: Fungicidal activity against Colletotrichum acutatum infested Citrus sinensis assessed as reduction in symptomatic flowers at 0.056 g/l applied through airblast sprayer during open flower stage measured after 7 days; type: functional, organism-based
Colletotrichum acutatum [9] = assay: Fungicidal activity against Colletotrichum acutatum infested Citrus sinensis assessed as increase in fruit set at 0.056 g/l applied through airblast sprayer during green bud and white bud flower stages measured after 70 days; type: functional, organism-based
Colletotrichum acutatum [10] = assay: Fungicidal activity against Colletotrichum acutatum infested Citrus sinensis assessed as reduction in symptomatic flowers at 0.056 g/l applied through airblast sprayer during white bud and hollow ball flower stages measured after 7 days; type: functional, organism-based
Colletotrichum acutatum [11] = assay: Fungicidal activity against Colletotrichum acutatum infested Citrus sinensis assessed as total fruit weight per plant at 0.056 g/l applied through airblast sprayer during open flower stage measured after 70 days (Rvb =49.88 kg); type: functional
Colletotrichum acutatum [12] = assay: Fungicidal activity against Colletotrichum acutatum infested Citrus sinensis assessed as reduction in symptomatic flowers at 0.056 g/l applied through airblast sprayer during green bud and hollow ball flower stages measured after 7 days; type: functional, organism-based
Colletotrichum acutatum [13] = assay: Fungicidal activity against Colletotrichum acutatum infested Citrus sinensis assessed as reduction in number of symptomatic flowers at 0.056 g/l applied through airblast sprayer during green bud, white bud and hollow ball flower stages measured after 7 days; type: functional, organism-based
Colletotrichum acutatum [14] = assay: Fungicidal activity against Colletotrichum acutatum infested Citrus sinensis assessed as total fruit weight per plant at 0.056 g/l applied through airblast sprayer during green bud, white bud and hollow ball flower stages measured after 70 days (Rvb =65.90 kg); type: functional
Colletotrichum acutatum [15] = assay: Fungicidal activity against Colletotrichum acutatum infested Citrus sinensis assessed as total fruit weight per plant at 0.056 g/l applied through airblast sprayer during green bud and hollow ball flower stages measured after 70 days (Rvb =49.88 kg); type: functional
Colletotrichum acutatum [16] = assay: Fungicidal activity against Colletotrichum acutatum infested Citrus sinensis assessed as increase in fruit set at 0.056 g/l applied through airblast sprayer during green bud until open flower stages measured after 70 days; type: functional, organism-based
Colletotrichum acutatum [17] = assay: Fungicidal activity against Colletotrichum acutatum infested Citrus sinensis assessed as total fruit weight per plant at 0.056 g/l applied through airblast sprayer during hollow ball flower stage measured after 70 days (Rvb =49.88 kg); type: functional
Colletotrichum acutatum [18] = assay: Fungicidal activity against Colletotrichum acutatum infested Citrus sinensis assessed as increase in fruit set at 0.056 g/l applied through airblast sprayer during green bud flower stage measured after 70 days; type: functional, organism-based
Colletotrichum acutatum [19] = assay: Fungicidal activity against Colletotrichum acutatum infested Citrus sinensis assessed as total fruit weight per plant at 0.056 g/l applied through airblast sprayer during green bud flower stage measured after 70 days (Rvb =65.90 kg); type: functional
Colletotrichum acutatum [20] = assay: Fungicidal activity against Colletotrichum acutatum infested Citrus sinensis assessed as increase in fruit set at 1.25 g/l applied through airblast sprayer during open flower stage measured after 70 days; type: functional, organism-based
Colletotrichum acutatum [21] = assay: Fungicidal activity against Colletotrichum acutatum infested Citrus sinensis assessed as reduction in symptomatic flowers at 1.25 g/l applied through airblast sprayer during white bud and hollow ball flower stages measured after 7 days; type: functional, organism-based
Colletotrichum acutatum [22] = assay: Fungicidal activity against Colletotrichum acutatum infested Citrus sinensis assessed as increase in fruit production per tree at 1.25 g/l applied through airblast sprayer during green bud to white ball flower stages measured after 70 days; type: functional, organism-based
Colletotrichum acutatum [23] = assay: Fungicidal activity against Colletotrichum acutatum infested Citrus sinensis assessed as reduction in symptomatic flowers at 1.25 g/l applied through airblast sprayer during hollow ball flower stage measured after 7 days; type: functional, organism-based
Colletotrichum acutatum [24] = assay: Fungicidal activity against Colletotrichum acutatum infested Citrus sinensis assessed as increase in fruit production per tree at 1 g/l applied through airblast sprayer during green bud to white ball flower stages measured after 70 days; type: functional, organism-based
Colletotrichum acutatum [25] = assay: Fungicidal activity against Colletotrichum acutatum infested Citrus sinensis assessed as increase in fruit set at 1.25 g/l applied through airblast sprayer during green bud, white bud and hollow ball flower stages measured after 70 days; type: functional, organism-based
Colletotrichum acutatum [26] = assay: Fungicidal activity against Colletotrichum acutatum infested Citrus sinensis assessed as total fruit weight per plant at 1.25 g/l applied through airblast sprayer during green bud, white bud and hollow ball flower stages measured after 70 days (Rvb =65.90 kg); type: functional
Colletotrichum acutatum [27] = assay: Fungicidal activity against Colletotrichum acutatum infested Citrus sinensis assessed as reduction in persistant calyces at 1.25 g/l applied through airblast sprayer during green bud to white ball flower stages measured after 7 days; type: functional, organism-based
Colletotrichum acutatum [28] = assay: Fungicidal activity against Colletotrichum acutatum infested Citrus sinensis assessed as reduction in symptomatic flowers at 1.25 g/l applied through airblast sprayer during green bud and hollow ball flower stages measured after 7 days; type: functional, organism-based
Colletotrichum acutatum [29] = assay: Fungicidal activity against Colletotrichum acutatum infested Citrus sinensis assessed as reduction in number of symptomatic flowers at 1.25 g/l applied through airblast sprayer during green bud, white bud and hollow ball flower stages measured after 7 days; type: functional, organism-based
Colletotrichum acutatum [30] = assay: Fungicidal activity against Colletotrichum acutatum infested Citrus sinensis assessed as reduction in persistant calyces at 1 g/l applied through airblast sprayer during green bud to white ball flower stages measured after 7 days; type: functional, organism-based
Colletotrichum acutatum [31] = assay: Fungicidal activity against Colletotrichum acutatum infested Citrus sinensis assessed as total fruit weight per plant at 1.25 g/l applied through airblast sprayer during open flower stage measured after 70 days (Rvb =49.88 kg); type: functional
Colletotrichum acutatum [32] = assay: Fungicidal activity against Colletotrichum acutatum infested Citrus sinensis assessed as increase in fruit set percentage at 1 g/l applied through airblast sprayer during green bud to white ball flower stages measured after 70 days; type: functional, organism-based
Colletotrichum acutatum [33] = assay: Fungicidal activity against Colletotrichum acutatum infested Citrus sinensis assessed as total fruit weight per plant at 1.25 g/l applied through airblast sprayer during white bud and hollow ball flower stages measured after 70 days (Rvb =49.88 kg); type: functional
Colletotrichum acutatum [34] = assay: Fungicidal activity against Colletotrichum acutatum infested Citrus sinensis assessed as increase in fruit set percentage at 1.25 g/l applied through airblast sprayer during green bud to white ball flower stages measured after 70 days; type: functional, organism-based
Colletotrichum acutatum [35] = assay: Fungicidal activity against Colletotrichum acutatum infested Citrus sinensis assessed as increase in fruit set at 1.25 g/l applied through airblast sprayer during white bud and hollow ball flower stages measured after 70 days relative to control; type: functional, organism-based
Colletotrichum acutatum [36] = assay: Fungicidal activity against Colletotrichum acutatum infested Citrus sinensis assessed as total fruit weight per plant at 1.25 g/l applied through airblast sprayer during green bud flower stage measured after 70 days (Rvb =65.90 kg); type: functional
Colletotrichum acutatum [37] = assay: Fungicidal activity against Colletotrichum acutatum infested Citrus sinensis assessed as total fruit weight per plant at 1.25 g/l applied through airblast sprayer during hollow ball flower stage measured after 70 days (Rvb =49.88 kg); type: functional
Colletotrichum acutatum [38] = assay: Fungicidal activity against Colletotrichum acutatum infested Citrus sinensis assessed as total fruit weight per plant at 1.25 g/l applied through airblast sprayer during green bud and white bud flower stages measured after 70 days (Rvb =65.90 kg); type: functional
Colletotrichum acutatum [39] = assay: Fungicidal activity against Colletotrichum acutatum infested Citrus sinensis assessed as reduction in symptomatic flowers at 1.25 g/l applied through airblast sprayer during open flower stage measured after 7 days; type: functional, organism-based
Colletotrichum acutatum [40] = assay: Fungicidal activity against Colletotrichum acutatum infested Citrus sinensis assessed as total fruit weight per plant at 1.25 g/l applied through airblast sprayer during green bud and hollow ball flower stages measured after 70 days (Rvb =49.88 kg); type: functional
Colletotrichum acutatum [41] = assay: Fungicidal activity against Colletotrichum acutatum infested Citrus sinensis assessed as total fruit weight per plant at 1.25 g/l applied through airblast sprayer during green bud until open flower stages measured after 70 days (Rvb =65.90 kg); type: functional

`CC1COC(Cn2cncn2)(c2ccc(Oc3ccc(Cl)cc3)cc2Cl)O1` (stereo unspecified) [DIFENOCONAZOLE] was tested, and the Activity (Colletotrichum acutatum [1]) was “Active”, the Activity (Colletotrichum acutatum [2]) was “inactive” and the Activity (Colletotrichum acutatum [3]) was 38.7 kg. For the same molecule, the Activity (Colletotrichum acutatum [4]) was 32.7 kg, the Activity (Colletotrichum acutatum [5]) was 47.2 kg and the Activity (Colletotrichum acutatum [6]) was “inactive”. For the same molecule, the Activity (Colletotrichum acutatum [7]) was “inactive”, the Activity (Colletotrichum acutatum [8]) was “inactive” and the Activity (Colletotrichum acutatum [9]) was “inactive”. The Activity (Colletotrichum acutatum [10]) was “Active”, the Activity (Colletotrichum acutatum [11]) was 38 kg and the Activity (Colletotrichum acutatum [12]) was “Active”. The Activity (Colletotrichum acutatum [13]) was “Active”, the Activity (Colletotrichum acutatum [14]) was 53.9 kg and the Activity (Colletotrichum acutatum [15]) was 53.5 kg. For the same molecule, the Activity (Colletotrichum acutatum [16]) was “inactive”, the Activity (Colletotrichum acutatum [17]) was 71.4 kg and the Activity (Colletotrichum acutatum [18]) was “inactive”. For the same molecule, the Activity (Colletotrichum acutatum [19]) was 59.2 kg.

`O=C1c2ccccc2C(=O)N1SC(Cl)(Cl)Cl` [FOLPET] was tested, and the Activity (Colletotrichum acutatum [20]) was “inactive”, the Activity (Colletotrichum acutatum [21]) was “Active” and the Activity (Colletotrichum acutatum [22]) was “Active”. The Activity (Colletotrichum acutatum [23]) was “Active”, the Activity (Colletotrichum acutatum [24]) was “Active” and the Activity (Colletotrichum acutatum [25]) was “Active”. For the same molecule, the Activity (Colletotrichum acutatum [26]) was 87.7 kg, the Activity (Colletotrichum acutatum [27]) was “Active” and the Activity (Colletotrichum acutatum [28]) was “Active”. For the same molecule, the Activity (Colletotrichum acutatum [29]) was “Active”, the Activity (Colletotrichum acutatum [30]) was “Active” and the Activity (Colletotrichum acutatum [31]) was 61.2 kg. The Activity (Colletotrichum acutatum [32]) was “Active”, the Activity (Colletotrichum acutatum [33]) was 59.6 kg and the Activity (Colletotrichum acutatum [34]) was “Active”. The Activity (Colletotrichum acutatum [35]) was “Active”, the Activity (Colletotrichum acutatum [36]) was 48.7 kg and the Activity (Colletotrichum acutatum [37]) was 48.2 kg. For the same molecule, the Activity (Colletotrichum acutatum [38]) was 53.5 kg, the Activity (Colletotrichum acutatum [39]) was “inactive” and the Activity (Colletotrichum acutatum [40]) was 46 kg. It also gave an Activity (Colletotrichum acutatum [41]) of 86.9 kg.
